Assay results from patent publication US20250296960A1, “PEPTIDE COMPOSITIONS AND METHODS OF USE THEREOF” (priority 2022, published 2025).
Read-outs that look alike come from different tables or passages of the source. Numbered stars: 1 amine (or outer) side, 2 acyl side, 3 side chain; on linkers, the order of the positions; unused ones are H or OH. Square brackets hold non-standard residues; d marks the D form. Side chains are listed from the residue outwards. Ends that are not written are not given here. Peptide text beside a SMILES is read from it. * marks the point of attachment. C18 = C18 fatty acid (C16-C22 fatty acids conjugated via γGlu/8-amino-3,6-dioxaoctanoic acid spacers); Biotin = O=C1N[C@H]2[C@H](CS[C@H]2CCCCC(=O)*)N1; C18 diacid = O=C(O)CCCCCCCCCCCCCCCCC(=O)*; γGlu = O=C(O)[C@H](CCC(=O)[*:2])N[*:1]; biotin‑maleimide = B1-MAL; AEEA = NCCOCCOCC(=O)O; Aib = CC(C)(N)C(=O)O; MAL = maleimide

Assays:
human GLP-1R = target: T1, human GLP-1R (Homo sapiens, UniProt P43220); experiment: cAMP assay (HitHunter cAMP) in GLP-1R-expressing CHO-K1 cells (GLP-1R+ cells); format: cell-based; conditions: Table 31
T1 construct: host or cells: CHO-K1
T1 sequence (P43220 24-463): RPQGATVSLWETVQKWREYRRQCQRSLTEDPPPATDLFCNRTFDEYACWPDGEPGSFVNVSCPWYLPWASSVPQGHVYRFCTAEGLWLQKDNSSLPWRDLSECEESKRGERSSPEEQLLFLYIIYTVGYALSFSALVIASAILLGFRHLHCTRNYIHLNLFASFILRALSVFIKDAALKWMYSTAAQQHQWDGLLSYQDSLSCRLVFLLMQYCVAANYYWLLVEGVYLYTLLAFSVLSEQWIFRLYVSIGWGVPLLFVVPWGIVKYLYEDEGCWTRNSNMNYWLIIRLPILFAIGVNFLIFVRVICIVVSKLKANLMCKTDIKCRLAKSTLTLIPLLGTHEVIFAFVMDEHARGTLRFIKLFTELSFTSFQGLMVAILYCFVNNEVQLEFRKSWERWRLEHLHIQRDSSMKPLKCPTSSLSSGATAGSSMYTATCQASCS
Outline: (§1)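 Luminescent cAMP read-out: after 30 min peptide stimulation at 37 °C in cAMP assay buffer, receptor-expressing CHO-K1 cells (seeded 7×10^3/well the night before) received antibody and detection reagents for 1 h, then Solution A for 3 h, at room temperature in the dark.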

human GCGR = target: T2, human GCGR (Homo sapiens, UniProt P47871); experiment: cAMP assay (HitHunter cAMP) in GCGR-expressing CHO-K1 cells (GCGR+ cells); format: cell-based; conditions: Table 31
T2 construct: host or cells: CHO-K1
T2 sequence (P47871 26-477): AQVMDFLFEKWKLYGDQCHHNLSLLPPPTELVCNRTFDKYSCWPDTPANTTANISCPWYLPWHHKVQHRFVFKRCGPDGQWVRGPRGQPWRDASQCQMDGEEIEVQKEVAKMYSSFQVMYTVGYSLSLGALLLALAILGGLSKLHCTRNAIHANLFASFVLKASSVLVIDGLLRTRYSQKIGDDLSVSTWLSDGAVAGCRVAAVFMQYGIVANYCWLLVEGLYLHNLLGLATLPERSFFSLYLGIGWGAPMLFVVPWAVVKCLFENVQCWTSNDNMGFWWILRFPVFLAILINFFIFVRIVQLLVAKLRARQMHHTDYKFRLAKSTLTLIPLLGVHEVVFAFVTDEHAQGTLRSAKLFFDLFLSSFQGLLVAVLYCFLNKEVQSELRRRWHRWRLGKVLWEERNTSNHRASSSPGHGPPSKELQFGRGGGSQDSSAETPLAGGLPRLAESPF
Outline: as §1

human GIPR = target: T3, human GIPR (Homo sapiens, UniProt P48546); experiment: cAMP assay (HitHunter cAMP) in GIPR-expressing CHO-K1 cells (GIPR+ cells); format: cell-based; conditions: Table 31
T3 construct: host or cells: CHO-K1
T3 sequence (P48546 22-466): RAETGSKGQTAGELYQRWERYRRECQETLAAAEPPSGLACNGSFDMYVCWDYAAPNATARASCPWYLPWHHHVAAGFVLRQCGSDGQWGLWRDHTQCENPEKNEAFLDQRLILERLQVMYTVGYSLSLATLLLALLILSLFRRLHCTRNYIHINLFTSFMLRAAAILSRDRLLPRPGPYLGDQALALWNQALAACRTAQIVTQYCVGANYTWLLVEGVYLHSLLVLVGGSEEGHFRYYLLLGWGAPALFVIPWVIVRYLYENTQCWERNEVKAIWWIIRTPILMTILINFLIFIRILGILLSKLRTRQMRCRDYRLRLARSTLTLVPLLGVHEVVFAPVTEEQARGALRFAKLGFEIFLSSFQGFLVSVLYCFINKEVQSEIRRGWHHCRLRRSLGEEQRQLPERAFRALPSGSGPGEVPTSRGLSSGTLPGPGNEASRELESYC
Outline: as §1

[1] = Body weight loss in high fat diet (HFD) mice, 2 weeks; format: in vivo; conditions: 20 nmol/kg s.c. Q2D
Experimental: This study was conducted to confirm the body weight loss effect and select the peptides to be evaluated in high fat diet (HFD) treated mouse, which is widely used as experimental animal model in obesity and diabetes studies. SEQ ID NOs. The peptides were delivered at 0.02% PS80 in PBS and dosing volume was 10 mL/kg. Body weight changes, blood glucose, and food intake were monitored Q2D. Animals were fasted at least 4 hours prior to blood glucose measurement.

[2] = In vitro enzymatic stability against FaSSIF/P (pancreatin in FaSSIF, pH 6.5); format: in vitro ADME; conditions: simulated gi fluid
FaSSIF/P = experiment: as above; format: in vitro ADME
[3] = In vivo efficacy in mAMLN (obese and NASH) mice, 4 weeks; conditions: after 4 weeks
[4] = Intestinal absorption / PK after intraduodenal administration of oral formulation in rats, serum LC-MS/MS; conditions: rat, in vivo
[5] = target: T4, human GLP-1 receptor (GLP-1R), expressed on CHO-K1 cells (human, UniProt P43220 24-463); experiment: cell-based or functional assay
[6] = target: T5, human glucagon receptor (GCGR), expressed on CHO-K1 cells (human, UniProt P47871 26-477); experiment: cell-based or functional assay
T5 sequence (P47871 26-477): as the sequence (P47871 26-477) above

[7] = target: T6, human glucose-dependent insulinotropic polypeptide receptor (GIPR), expressed on CHO-K1 cells (human, UniProt P48546 22-466); experiment: cell-based or functional assay
T6 sequence (looked up): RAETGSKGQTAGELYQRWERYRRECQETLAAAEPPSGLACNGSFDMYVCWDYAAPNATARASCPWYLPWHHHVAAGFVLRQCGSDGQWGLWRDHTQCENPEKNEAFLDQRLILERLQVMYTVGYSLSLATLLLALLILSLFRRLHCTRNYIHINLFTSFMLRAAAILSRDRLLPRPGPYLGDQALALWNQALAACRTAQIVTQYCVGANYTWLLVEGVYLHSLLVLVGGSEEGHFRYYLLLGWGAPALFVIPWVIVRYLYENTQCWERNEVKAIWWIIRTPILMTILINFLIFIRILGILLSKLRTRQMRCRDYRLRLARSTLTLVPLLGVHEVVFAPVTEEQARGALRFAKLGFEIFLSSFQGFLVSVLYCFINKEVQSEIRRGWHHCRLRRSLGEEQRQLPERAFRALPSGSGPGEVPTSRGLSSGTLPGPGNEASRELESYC

[8] = target: T4, human GLP-1 receptor (GLP-1R), …; experiment: cell-based or functional assay; remark: listed apart in the source
[9] = target: T5, human glucagon receptor (GCGR), …; experiment: cell-based or functional assay; remark: listed apart in the source
[10] = target: T6, human glucose-dependent insulinotropic …; experiment: cell-based or functional assay; remark: listed apart in the source
[11] = target: T4, human GLP-1 receptor (GLP-1R), …; experiment: cell-based or functional assay; remark: listed apart in the source
[12] = target: T5, human glucagon receptor (GCGR), …; experiment: cell-based or functional assay; remark: listed apart in the source
[13] = target: T6, human glucose-dependent insulinotropic …; experiment: cell-based or functional assay; remark: listed apart in the source

CSCC[C@H](NC(=O)[C@H](Cc1ccc(O)cc1)NC(=O)[C@H](CC(=O)O)NC(=O)[C@H](CC(C)C)NC(=O)[C@H](CC(C)C)NC(=O)[C@H](CCCCNC(=O)COCCOCCNC(=O)COCCOCCNC(=O)CC[C@H](NC(=O)CCCCCCCCCCCCCCCCC(=O)O)C(=O)O)NC(=O)[C@H](CO)NC(=O)[C@H](Cc1ccc(O)cc1)NC(=O)[C@H](CC(=O)O)NC(=O)[C@H](CO)NC(=O)[C@@H](NC(=O)[C@H](Cc1ccccc1)NC(=O)[C@@H](NC(=O)CNC(=O)[C@H](CCC(N)=O)NC(=O)C(C)(C)NC(=O)[C@@H](N)Cc1ccc(O)cc1)[C@@H](C)O)[C@@H](C)O)C(=O)N[C@@H](CCSC)C(=O)N[C@@H](CCC(N)=O)C(=O)N[C@@H](CCCNC(=N)N)C(=O)N[C@@H](CC(=O)O)C(=O)N[C@@H](Cc1ccccc1)C(=O)N[C@H](C(=O)N[C@@H](CCCCNC(=O)CCCC[C@@H]1SC[C@@H]2NC(=O)N[C@@H]21)C(=O)N[C@@H](Cc1c[nH]c2ccccc12)C(=O)N[C@@H](CC(C)C)C(=O)N[C@@H](CC(C)C)C(=O)N[C@@H](CCC(=O)O)C(=O)NCC(=O)NCC(=O)N1CCC[C@H]1C(=O)N[C@@H](CO)C(=O)N[C@@H](CO)C(=O)NCC(=O)N[C@@H](C)C(=O)N1CCC[C@H]1C(=O)N1CCC[C@H]1C(=O)N1CCC[C@H]1C(=O)N[C@@H](CO)C(N)=O)C(C)C [compound 89] (H-Y[Aib]QGTFTSDYSK([AEEA-AEEA-γGlu-C18 diacid])LLDYMMQRDFVK(Biotin)WLLEGGPSSGAPPPS-NH2; N-terminus and C-terminus assumed)
Ratio vs. GLP-1R, GLP-1R (human GLP-1R): 100 | Relative % to native ligand, GLP-1R (human GLP-1R): 38% | Ratio vs. GLP-1R, GCGR (human GCGR): 117 | Relative % to native ligand, GCGR (human GCGR): 45% | Ratio vs. GLP-1R, GIPR (human GIPR): 399 | Relative % to native ligand, GIPR (human GIPR): 154% | body weight loss effect compared to SEQ ID NO. 77, in words [1]: comparable to SEQ ID NO. 77 | half-life ([2]; pH 6.5, Table 33, peptide:pancreatin weight ratio 25:1, FaSSIF pH 6.5, 37° C., read-out: Half-life): 0.717 h | intestinal stability in FaSSIF/P compared with SEQ ID NO. 77, in words (FaSSIF/P; Example 11): not inferior to that of SEQ ID No. 77 | hepatic steatosis (histological score), in words [3]: significantly reduced | AUC(0-inf) ([4]; rats, single intraduodenal (ID) administration, read-out: AUCinf): 2790 ng·h/mL | Cmax ([4]; rats, single intraduodenal (ID) administration, read-out: mean Cmax): 332 ng/mL | half-life ([4]; rats, single intraduodenal (ID) administration, read-out: t1/2 (converted)): 7.24 h

CSCC[C@H](NC(=O)[C@H](Cc1ccc(O)cc1)NC(=O)[C@H](CC(=O)O)NC(=O)[C@H](CC(C)C)NC(=O)[C@H](CC(C)C)NC(=O)[C@H](CCCCNC(=O)COCCOCCNC(=O)COCCOCCNC(=O)CC[C@H](NC(=O)CCCCCCCCCCCCCCCCC(=O)O)C(=O)O)NC(=O)[C@H](CO)NC(=O)[C@H](Cc1ccc(O)cc1)NC(=O)[C@H](CC(=O)O)NC(=O)[C@H](CO)NC(=O)[C@@H](NC(=O)[C@H](Cc1ccccc1)NC(=O)[C@@H](NC(=O)CNC(=O)[C@H](CCC(N)=O)NC(=O)C(C)(C)NC(=O)[C@@H](N)Cc1ccc(O)cc1)[C@@H](C)O)[C@@H](C)O)C(=O)N[C@@H](CCSC)C(=O)N[C@@H](CCC(N)=O)C(=O)N[C@@H](CCCNC(=N)N)C(=O)N[C@@H](CC(=O)O)C(=O)N[C@@H](Cc1ccccc1)C(=O)N[C@H](C(=O)N[C@@H](CCC(N)=O)C(=O)N[C@@H](Cc1c[nH]c2ccccc12)C(=O)N[C@@H](CC(C)C)C(=O)N[C@@H](CC(C)C)C(=O)N[C@@H](CCC(=O)O)C(=O)NCC(=O)NCC(=O)N1CCC[C@H]1C(=O)N[C@@H](CO)C(=O)N[C@@H](CO)C(=O)NCC(=O)N[C@@H](C)C(=O)N1CCC[C@H]1C(=O)N1CCC[C@H]1C(=O)N1CCC[C@H]1C(=O)N[C@@H](CO)C(=O)N[C@@H](CCCCNC(=O)CCCC[C@@H]1SC[C@@H]2NC(=O)N[C@@H]21)C(N)=O)C(C)C [compound 90] (H-Y[Aib]QGTFTSDYSK([AEEA-AEEA-γGlu-C18 diacid])LLDYMMQRDFVQWLLEGGPSSGAPPPSK(Biotin)-NH2; N-terminus and C-terminus assumed)
Ratio vs. GLP-1R, GLP-1R (human GLP-1R): 100 | Relative % to native ligand, GLP-1R (human GLP-1R): 50% | Ratio vs. GLP-1R, GCGR (human GCGR): 39 | Relative % to native ligand, GCGR (human GCGR): 19% | Ratio vs. GLP-1R, GIPR (human GIPR): 311 | Relative % to native ligand, GIPR (human GIPR): 154% | body weight loss effect compared to SEQ ID NO. 77, in words [1]: comparable to SEQ ID NO. 77 | half-life ([2]; pH 6.5, Half-life (min)): 0.702 h | intestinal stability in FaSSIF/P compared with SEQ ID NO. 77, in words (FaSSIF/P): not inferior to that of SEQ ID No. 77 | AUC(0-inf) [4]: 2490 ng·h/mL | Cmax [4]: 282 ng/mL | half-life [4]: 8.37 h | time at which Cmax was reached [4]: 0.30 h

H[Aib]QGTFTSDYSK(Biotin)YLDYMMARDFVQWLIEGGPSSGAPPPSC([MAL-AEEA-AEEA-γGlu-C18])-NH2 [Peptide No. 5B (peptide 5, B type: lipid at Cys40 and biotin at Lys12)]
EC50 (nM), cAMP assay [5]: 0.18 nM | EC50 (nM), cAMP assay [6]: 15.1 nM | EC50 (nM), cAMP assay [7]: 97.2 nM

H[Aib]QGTFTSDYSKYLDYMMARDFVQWLIEGGPSSGAPPPSC([MAL-AEEA-AEEA-γGlu-C18])-NH2 [Peptide No. 5A (peptide 5, A type: lipid at Cys40)]
EC50 (nM), cAMP assay [5]: 0.187 nM | EC50 (nM), cAMP assay [6]: 9.29 nM | EC50 (nM), cAMP assay [7]: 140 nM | EC50 (nM), cAMP assay [8]: 0.0967 nM | EC50 (nM), cAMP assay [9]: 1.71 nM | EC50 (nM), cAMP assay [10]: 157 nM

H[Aib]QGTFTSDHSWYLDKWTAHDFVQWLINGGPSSGAPPPSC([MAL-AEEA-AEEA-γGlu-C18])-NH2 [Peptide No. 18A (peptide 18, A type: lipid at Cys40)]
Percentage change in EC50 relative to GLP-1 at human GLP-1R (%) [11]: 0% | Percentage change in EC50 relative to GCG at human GCGR (%) [12]: 0% | Percentage change in EC50 relative to GIP at human GIPR (%) [13]: 0%

H[Aib]QGTFTSDASKYLDRDWTGDFVQWLIDGGPSSGAPPPSC([MAL-AEEA-AEEA-γGlu-C18])-NH2 [Peptide No. 32A (peptide 32, A type: lipid at Cys40)]
Percentage change in EC50 relative to GLP-1 at human GLP-1R (%) [11]: 1% | Percentage change in EC50 relative to GCG at human GCGR (%) [12]: 0% | Percentage change in EC50 relative to GIP at human GIPR (%) [13]: 0%

H[Aib]QGTFTSDYSK([AEEA-AEEA-γGlu-C18])YLDYMMARDFVQWLIEGGPSSGAPPPSC(biotin‑maleimide)-NH2 [Peptide No. 5C (peptide 5, C type: lipid at Lys12 and biotin at Cys40)]
EC50 (nM), cAMP assay [5]: 0.0772 nM | EC50 (nM), cAMP assay [6]: 3.23 nM | EC50 (nM), cAMP assay [7]: 24.2 nM

H[Aib]QGTFTSDWSKYLDQQMAQDFVDWLINGGPSSGAPPPSC([MAL-AEEA-AEEA-γGlu-C18])-NH2 [Peptide No. 12A (peptide 12, A type: lipid at Cys40)]
Percentage change in EC50 relative to GLP-1 at human GLP-1R (%) [11]: 296% | Percentage change in EC50 relative to GCG at human GCGR (%) [12]: 15% | Percentage change in EC50 relative to GIP at human GIPR (%) [13]: 8%
